Reference: patent US9192621B2, “Esters and malonates of SATE prodrugs” (IDENIX PHARMACEUTICALS LLC, priority 2012, dated 2015)

Experiments:
HCV genotype 1b replicon = assay: HCV replicon assay (luciferase reporter, Zluc cells); type: cell-based; settings: Huh-7-derived Zluc cells, 72 hours of incubation
[1] = Cytotoxicity evaluation, CellTiter-Blue Cell Viability Assay; type: cell-based; settings: human, Zluc cells (HCV replicon cells)
Zluc cells = assay: as above; type: cell-based; settings: read-out: HCV Replicon CC50
[2] = Stability in simulated gastric and intestinal fluids; type: in vitro ADME; settings: 100 μM, 2 hours at 37° C., percent of the peak area observed at time zero
Procedure: Stability in simulated gastric and intestinal fluids: Simulated gastric and intestinal fluids containing pepsin and pancreatin respectively were prepared according to the U.S. Pharmacopoeia USP291 procedure (www.pharmacopeia.cn/v29240/usp29nf24s0_ris1s126.html). Test compound (final concentration 100 μM) was incubated in duplicate in the appropriate fluid for 2 hours at 37° C. The samples were quenched with 200 μl cold acetonitrile, vortexed for 30 seconds and then centrifuged at 16,100 g for 10 min. The supernatants were analyzed by HPLC on a C-18 column with UV detection at 252 nm. The time 0 samples were prepared by adding SGF or SIF fluid to the quenching solvent followed by the test compound. Stability of the compound was determined by peak area for the test compound after incubation and calculated as percent of the peak area observed at time zero.

CCOc1nc(N)nc2c1ncn2[C@@H]1O[C@H](COP(=O)(NCc2ccccc2)OCCSC(=O)C(C)(C)COC(C)=O)[C@@H](O)[C@@]1(C)F (single isomer, unassigned) [Compound 101 Diastereomer 1]
EC50 (HCV genotype 1b replicon; Hepatitis C virus): ≤ 0.25 µM | CC50 at 72 h [1]: ≤ 50 µM

CCOc1nc(N)nc2c1ncn2[C@@H]1O[C@H](COP(=O)(NCc2ccccc2)OCCSC(=O)C(C)(C)COC(C)=O)[C@@H](O)[C@@]1(C)F (single isomer, unassigned) [Compound 101 Diastereomer 2]
EC50 (HCV genotype 1b replicon): ≤ 0.25 µM

CCCCCC(=O)OCC(C)(C)C(=O)SCCOP(=O)(NCc1ccccc1)OC[C@H]1O[C@@H](n2cnc3c(OCC)nc(N)nc32)[C@](C)(F)[C@@H]1O (single isomer, unassigned) [Compound 103 Diastereomer 1]
EC50 (HCV genotype 1b replicon; Hepatitis C virus): ≤ 0.25 µM | CC50 at 72 h [1]: > 50 µM

CCCCCC(=O)OCC(C)(C)C(=O)SCCOP(=O)(NCc1ccccc1)OC[C@H]1O[C@@H](n2cnc3c(OCC)nc(N)nc32)[C@](C)(F)[C@@H]1O (single isomer, unassigned) [Compound 103 Diastereomer 2]
CC50 (Zluc cells): > 50 µM

CCOc1nc(N)nc2c1ncn2[C@@H]1O[C@H](COP(=O)(NCc2ccccc2)OCCSC(=O)C(C)(C)C(=O)OC(C)C)[C@@H](O)[C@@]1(C)F (single isomer, unassigned) [Compound 105 Diastereomer 1]
EC50 (HCV genotype 1b replicon; Hepatitis C virus): ≤ 0.25 µM | CC50 at 72 h [1]: > 50 µM

CCOc1nc(N)nc2c1ncn2[C@@H]1O[C@H](COP(=O)(NCc2ccccc2)OCCSC(=O)C(C)(C)C(=O)OC(C)C)[C@@H](O)[C@@]1(C)F (single isomer, unassigned) [Compound 105 Diastereomer 2]
CC50 (Zluc cells): > 50 µM

CCOc1nc(N)nc2c1ncn2[C@@H]1O[C@H](COP(=O)(NCc2ccccc2)OCCSC(=O)C(C)(C)COC(C)=O)[C@@H](O)[C@@]1(C)F (stereo partly drawn) [Compound 101]
EC50 (HCV genotype 1b replicon; Hepatitis C virus): ≤ 0.25 µM | CC50 at 72 h [1]: ≤ 50 µM

CCCC(=O)OCC(C)(C)C(=O)SCCOP(=O)(NCc1ccccc1)OC[C@H]1O[C@@H](n2cnc3c(OCC)nc(N)nc32)[C@](C)(F)[C@@H]1O (stereo partly drawn) [Compound 102]
EC50 (HCV genotype 1b replicon; Hepatitis C virus): ≤ 0.25 µM | CC50 at 72 h [1]: ≤ 50 µM

CCCCCC(=O)OCC(C)(C)C(=O)SCCOP(=O)(NCc1ccccc1)OC[C@H]1O[C@@H](n2cnc3c(OCC)nc(N)nc32)[C@](C)(F)[C@@H]1O (stereo partly drawn) [Compound 103]
EC50 (HCV genotype 1b replicon; Hepatitis C virus): ≤ 0.25 µM | CC50 at 72 h [1]: > 50 µM

CCOc1nc(N)nc2c1ncn2[C@@H]1OC(COP(=O)(NCc2ccccc2)OCCSC(=O)C(C)(C)COC(=O)C(C)C)[C@@H](O)[C@@]1(C)F (stereo partly drawn) [Compound 104]
EC50 (HCV genotype 1b replicon; Hepatitis C virus): ≤ 0.25 µM | CC50 at 72 h [1]: ≤ 50 µM

CCOc1nc(N)nc2c1ncn2[C@@H]1O[C@H](COP(=O)(NCc2ccccc2)OCCSC(=O)C(C)(C)C(=O)OC(C)C)[C@@H](O)[C@@]1(C)F (stereo partly drawn) [Compound 105]
EC50 (HCV genotype 1b replicon; Hepatitis C virus): ≤ 0.25 µM | CC50 at 72 h [1]: > 50 µM

CC(=O)OCC(C)(C)C(=O)SCCOP(=O)(NCc1ccccc1)OCC1O[C@@H](n2cnc3c(=O)[nH]c(N)nc32)[C@](C)(O)[C@@H]1O (stereo partly drawn) [Compound 106]
EC50 (HCV genotype 1b replicon; Hepatitis C virus): ≤ 0.25 µM | CC50 at 72 h [1]: ≤ 50 µM

CCCC(=O)OCC(C)(C)C(=O)SCCOP(=O)(NCc1ccccc1)OCC1O[C@@H](n2cnc3c(=O)[nH]c(N)nc32)[C@](C)(O)[C@@H]1O (stereo partly drawn) [Compound 107]
EC50 (HCV genotype 1b replicon; Hepatitis C virus): ≤ 0.25 µM | CC50 at 72 h [1]: ≤ 50 µM | Stability SGF ([2]; simulated gastric fluid containing pepsin): +++ (50<+++<100) | Stability SIF ([2]; simulated intestinal fluid containing pancreatin): + (+≦25)

CCCCCC(=O)OCC(C)(C)C(=O)SCCOP(=O)(NCc1ccccc1)OCC1O[C@@H](n2cnc3c(=O)[nH]c(N)nc32)[C@](C)(O)[C@@H]1O (stereo partly drawn) [Compound 108]
EC50 (HCV genotype 1b replicon; Hepatitis C virus): ≤ 0.25 µM | CC50 at 72 h [1]: ≤ 50 µM
